# Experiments:
# Assay type in all cases: cell-based
# OV1063 = test: MTT cytotoxicity, OV1063 cancer cell line; conditions: Homo sapiens, OV-1063; OV1063 cells
# OVCAR 3 = test: MTT cytotoxicity, OVCAR 3 cancer cell line; conditions: Homo sapiens; OVCAR 3 cells
# cancer cells = test: Uptake of paclitaxel encapsulated in sHDL nanoparticles by cancer cells; conditions: encapsulated in the delivery particles; HDL receptors; FIG. 7
# DU145 = test: MTT cytotoxicity, DU145 cancer cell line; conditions: Homo sapiens, DU-145; DU145 cells
structure (smiles),measurement,setting,value
"CC(=O)O[C@H]1C(=O)[C@@]2(C)[C@H]([C@H](OC(=O)c3ccccc3)[C@]3(O)C[C@H](OC(=O)[C@H](O)[C@@H](NC(=O)c4ccccc4)c4ccccc4)C(C)=C1C3(C)C)[C@]1(OC(C)=O)CO[C@@H]1C[C@@H]2O [Ptx, paclitaxel]",IC50,OV1063,14.2 µM
same,IC50,OVCAR 3,70.3 µM
same,uptake by cancer cells,cancer cells,taken up by cancer cells via this receptor mediated mechanism
same,IC50,DU145,14.2 µM

# Reference: patent publication US20090110739A1, “Targeted cancer chemotherapy using synthetic nanoparticles” (University of North Texas Health Science Center at Forth …, priority 2007, published 2009)
